Key:
Assay type in all cases: in vivo
Conditions in all cases: SD rats, intragastric; for NAD+ level in blood: 100 mg/kg NMN and/or 10 mg/kg quercetin
NAD+ [1] = assay: Increasing the level of NAD+ by controlled-release NMN microspheres 1-3, blood NAD+ by HPLC (Example 3)
Description: (§1) 28 SD rats weighing about 200 g were purchased, and an experiment was carried out after one week of adaptive feeding. The 28 rats were divided into 7 groups, 4 rats per group (half male and half female). The rats in group 1 were not treated, the rats in group 2 were administered intragastrically with 100 mg/kg of NMN, the rats in group 3 were administered intragastrically with 10 mg/kg of quercetin, the rats in group 4 were administered intragastrically with 100 mg/kg of NMN and 10 mg/kg of quercetin at the same time, the rats in group 5 were administered intragastrically with the controlled-release microspheres 1 containing 100 mg/kg of NMN and 10 mg/kg of quercetin, the rats in group 6 were administered intragastrically with the controlled-release NMN microspheres 2 containing 100 mg/kg of NMN and 10 mg/kg of quercetin, and the rats in group 7 were administered intragastrically with the controlled-release NMN microspheres 3 containing 100 mg/kg of NMN and 10 mg/kg of quercetin.
Blood was collected from the rat in each groups via the tail vein at time points of 2 h, 2.5 h, 3 h, 3.5 h, 4 h, 4.5 h, 5 h, 5.5 h, and 6 h, respectively, after intragastric administration of corresponding microspheres, and 0.1 mL of blood was collected each time by each rat. After the vein blood collected from the rat in each groups at each time point was treated, the NAD+ level in the blood sample was tested by high performance liquid chromatography (HPLC). The test results of 4 rats in each group were averaged. […] Different parameters are set in the preparation processes of the controlled-release NMN microsphere 1, the controlled-release NMN microsphere 2, and the controlled-release NMN microsphere 3, so the time intervals between release peaks of quercetin and release peaks of NMN in the microspheres are different. A time difference between a peak of the releasing of quercetin and a peak of the releasing of NMN in the controlled-release NMN microsphere 1 is 1 h-2 h, a time difference between a peak of the releasing of quercetin and a peak of the releasing of NMN in the controlled-release NMN microsphere 2 is 0.5 h-1.5 h, and a time difference between a peak of the releasing of quercetin and a peak of the releasing of NMN in the controlled-release NMN microsphere 3 is 0 h-1 h.

NAD+ [2] = assay: Increasing the level of NAD+ by controlled-release NMN microspheres 2, 5, 6, blood NAD+ by HPLC (Example 9)
Description: as §1, with “the controlled-release NMN microspheres 2” for “the controlled-release microspheres 1”, “NMN microspheres 2 containing 100” for “controlled-release microspheres 1 containing 100”, “NMN microspheres 5 containing 100” for “NMN microspheres 2 containing 100”, “NMN microspheres 6 containing 100” for “NMN microspheres 3 containing 100”
Blood was collected from the rat in each groups via the tail vein at time points of 2 h, 2.5 h, 3 h, 3.5 h, 4 h, 4.5 h, 5 h, 5.5 h, and 6 h, respectively, after intragastric administration of corresponding microspheres, and 0.1 mL of blood was collected each time by each rat. After the vein blood collected from the rat in each groups at each time point was treated, the NAD+ level in the blood sample was tested by high performance liquid chromatography (HPLC). The test results of 4 rats in each group were averaged. […] There are time differences between a peak of the releasing of quercetin and a peak of the releasing of NMN in the controlled-release NMN microsphere 2, the controlled-release NMN microsphere 5, and the controlled-release NMN microsphere 6 that are prepared based on difference mass ratios of quercetin (the CD38 inhibitor) to NMN, and the time differences between a peak of the releasing of quercetin and a peak of the releasing of NMN in the three microspheres are consistent and are all about 0.5-1.5 h.

NAD+ [3] = assay: Increasing the level of NAD+ by controlled-release NMN microspheres 2, 9, 10, blood NAD+ by HPLC (Example 15)
Description: as §1, with “10 mg/kg quercetin at” for “10 mg/kg of quercetin at”, “the controlled-release NMN microspheres 2” for “the controlled-release microspheres 1”, “NMN microspheres 2 containing 100” for “controlled-release microspheres 1 containing 100”, “NMN microspheres 9 containing 100” for “NMN microspheres 2 containing 100”, “NMN microspheres 10 containing 100” for “NMN microspheres 3 containing 100”
Blood was collected from each rat in the groups via the tail vein at time points of 2 h, 2.5 h, 3 h, 3.5 h, 4 h, 4.5 h, 5 h, 5.5 h, and 6 h, respectively, after intragastric administration of corresponding microspheres, and 0.1 mL of blood was collected each time by each rat. After the vein blood collected from each rat in the groups at each time point was treated, the NAD+ level in the blood sample was tested by high performance liquid chromatography (HPLC). The test results of 4 rats in each group were averaged. […] There are time differences between a peak of the releasing of quercetin and a peak of the releasing of NMN in the controlled-release NMN microsphere 2, the controlled-release NMN microsphere 9, and the controlled-release NMN microsphere 10 that are prepared based on different mass ratios of quercetin (the CD38 inhibitor) to the excipient and different mass ratios of NMN to the excipient, and the time differences between a peak of the releasing of quercetin and a peak of the releasing of NMN in the three microspheres are consistent and are all about 0.5-1.5 h.

SMILES	level of NAD+ in the rat compared with the blank group (in words) (NAD+ [1])	NAD+ level in blood (NAD+ [1]; 2 h)	NAD+ level in blood (NAD+ [1]; 2.5 h)	NAD+ level in blood (NAD+ [1]; 3 h)	NAD+ level in blood (NAD+ [1]; 3.5 h)	NAD+ level in blood (NAD+ [1]; 4 h)	NAD+ level in blood (NAD+ [1]; 4.5 h)	NAD+ level in blood (NAD+ [1]; 5 h)	NAD+ level in blood (NAD+ [1]; 5.5 h)	NAD+ level in blood (NAD+ [1]; 6 h)	level of NAD+ in the rat compared with the blank group (in words) (NAD+ [2])	NAD+ level in blood (NAD+ [2]; 2 h)	NAD+ level in blood (NAD+ [2]; 2.5 h)	NAD+ level in blood (NAD+ [2]; 3 h)	NAD+ level in blood (NAD+ [2]; 3.5 h)	NAD+ level in blood (NAD+ [2]; 4 h)	NAD+ level in blood (NAD+ [2]; 4.5 h)	NAD+ level in blood (NAD+ [2]; 5 h)	NAD+ level in blood (NAD+ [2]; 5.5 h)	NAD+ level in blood (NAD+ [2]; 6 h)	also measured
NC(=O)c1ccc[n+]([C@@H]2O[C@H](COP(=O)([O-])O)[C@@H](O)[C@H]2O)c1 [NMN, nicotinamide mononucleotide]	can increase the level of NAD+ in the rat	139 µM	207 µM	173 µM	159 µM	150 µM	145 µM	148 µM	152 µM	147 µM	can increase the level of NAD+ in the rat	133 µM	197 µM	168 µM	159 µM	143 µM	148 µM	139 µM	144 µM	140 µM	level of NAD+ in the rat compared with the blank group (in words) (NAD+ [3]): can increase the level of NAD+ in the rat; NAD+ level in blood (NAD+ [3]; 2 h): 134 µM; NAD+ level in blood (NAD+ [3]; 2.5 h): 193 µM; NAD+ level in blood (NAD+ [3]; 3 h): 153 µM; NAD+ level in blood (NAD+ [3]; 3.5 h): 168 µM; NAD+ level in blood (NAD+ [3]; 4 h): 142 µM; NAD+ level in blood (NAD+ [3]; 4.5 h): 137 µM; NAD+ level in blood (NAD+ [3]; 5 h): 131 µM; NAD+ level in blood (NAD+ [3]; 5.5 h): 138 µM; NAD+ level in blood (NAD+ [3]; 6 h): 134 µM
O=c1c(O)c(-c2ccc(O)c(O)c2)oc2cc(O)cc(O)c12 [Quercetin, quercetin]	can increase the level of NAD+ in the rat	145 µM	152 µM	178 µM	160 µM	147 µM	150 µM	151 µM	144 µM	149 µM	can increase the level of NAD+ in the rat	127 µM	146 µM	180 µM	164 µM	151 µM	144 µM	147 µM	130 µM	137 µM	level of NAD+ in the rat compared with the blank group (in words) (NAD+ [3]): can increase the level of NAD+ in the rat; NAD+ level in blood (NAD+ [3]; 2 h): 121 µM; NAD+ level in blood (NAD+ [3]; 2.5 h): 140 µM; NAD+ level in blood (NAD+ [3]; 3 h): 176 µM; NAD+ level in blood (NAD+ [3]; 3.5 h): 158 µM; NAD+ level in blood (NAD+ [3]; 4 h): 146 µM; NAD+ level in blood (NAD+ [3]; 4.5 h): 138 µM; NAD+ level in blood (NAD+ [3]; 5 h): 141 µM; NAD+ level in blood (NAD+ [3]; 5.5 h): 124 µM; NAD+ level in blood (NAD+ [3]; 6 h): 132 µM
